These results are taken from patent US20240116985A1, “STAPLED PEPTIDES AND METHODS THEREOF” (priority 2020, published 2024).

The structures appear in SMILES notation. Values after ≈ are worked out from the molar mass of the structure shown. Where two headings read alike, the source gives them in different places.

The nature of data set [1]: Solubility in PBS. The format is physicochemical. The gist of the method:
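Read-out is the HPLC peak area of the supernatant from ultracentrifuged PBS solution, scaled against a 50 μM peptide DMSO injection; value reported as [(PBS area)/(DMSO area)]*50 uM.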

Data set [2] can be described thus: CHI Log D procedure. The settings on record: for CHI Log D: pH 7.4; for chromatographic logD: pH 7.4, CHI Log D. Format: physicochemical.
The target of data set [3] is T1, full-length beta-Catenin (Uniprot ID P35222) (Homo sapiens, UniProt P35222).
T1 construct: 10 nM full-length beta-Catenin (Uniprot ID P35222)
T1 sequence (P35222 1-781): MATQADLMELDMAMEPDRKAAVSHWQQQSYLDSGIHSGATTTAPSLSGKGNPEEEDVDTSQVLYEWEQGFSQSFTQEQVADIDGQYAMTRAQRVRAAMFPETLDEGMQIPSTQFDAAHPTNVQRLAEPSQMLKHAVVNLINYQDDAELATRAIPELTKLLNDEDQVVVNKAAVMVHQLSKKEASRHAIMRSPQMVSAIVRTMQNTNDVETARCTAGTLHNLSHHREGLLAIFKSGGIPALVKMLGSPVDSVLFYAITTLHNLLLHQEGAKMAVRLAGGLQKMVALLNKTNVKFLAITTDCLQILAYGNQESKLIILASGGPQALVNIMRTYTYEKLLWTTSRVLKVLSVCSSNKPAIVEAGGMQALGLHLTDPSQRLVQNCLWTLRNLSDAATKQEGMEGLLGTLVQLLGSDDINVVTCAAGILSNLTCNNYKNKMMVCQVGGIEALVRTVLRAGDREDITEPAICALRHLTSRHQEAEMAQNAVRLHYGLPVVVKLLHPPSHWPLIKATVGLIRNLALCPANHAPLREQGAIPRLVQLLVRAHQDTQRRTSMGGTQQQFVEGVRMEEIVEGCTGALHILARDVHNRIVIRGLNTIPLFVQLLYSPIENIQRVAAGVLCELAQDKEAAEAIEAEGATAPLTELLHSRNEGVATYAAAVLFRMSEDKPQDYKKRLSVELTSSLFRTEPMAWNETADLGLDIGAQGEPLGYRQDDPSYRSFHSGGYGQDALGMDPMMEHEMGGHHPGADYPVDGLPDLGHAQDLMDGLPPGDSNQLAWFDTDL
The data set is described as follows: Fluorescence polarization IC50 (beta-catenin / 5FAM-TCF4 10-53 competition). Format: binding. (Polarisation of emitted light reports the rotation of a fluorescent probe.)

Where [4] appears, read: fluorescence polarization, read-out: beta-Catenin FP IC50.

As a reminder, the Solubility is how much of the substance goes into solution per volume. Read a high Solubility as much dissolved substance. Consider `CC[C@H](C)[C@@H]1NC(=O)[C@H](CC(=O)O)NC(=O)[C@]2(CC=CCCCC3(CCCC=CCCCCCC[C@@](C)(C(=O)N[C@@H](Cc4ccsc4)C(=O)N[C@@H](Cc4csc5ccccc45)C(N)=O)NC(=O)[C@H](CC(N)=O)NC(=O)[C@H](Cc4ccccc4)NC(=O)[C@H](C)NC(=O)[C@H](C)NC(=O)[C@H](CCC(=O)O)NC(=O)[C@H](CC(=O)O)NC3=O)NC1=O)CCCN2C(C)=O` (stereo partly drawn) [I-721, Ac-PL3-Asp-Ile-B5-Asp-Glu-Ala-Ala-Phe-Asn-S8-3Thi-BztA-NH2], for which, in data set [1], the “Solubility” value was 28 µM (≈ 48.9 µg/mL). In addition, in data set [2], the “CHI Log D” value is 2.722. Besides, the IC50 in data set [3] (setting [4]) and in data set [3] (read-out: FP EC50) was 46 nM throughout.

Broadly, the chromatographic logD is lipophilicity estimated from chromatographic retention. Read a high chromatographic logD as higher lipophilicity. Regarding `CC[C@H](C)[C@@H]1NC(=O)[C@H](CC(=O)O)NC(=O)[C@]2(CC=CCCCC3(CCCC=CCCCCCC[C@@](C)(C(=O)N[C@@H](Cc4ccccc4)C(=O)N[C@@H](Cc4csc5ccccc45)C(=O)N[C@@H](CCC(N)=O)C(N)=O)NC(=O)[C@H](CCC(N)=O)NC(=O)[C@H](CC4CCCCC4)NC(=O)[C@H](C)NC(=O)[C@H](C)NC(=O)[C@H](CCC(=O)O)NC(=O)[C@H](CC(=O)O)NC3=O)NC1=O)CCCN2C(C)=O` (stereo partly drawn) [I-722, Ac-PL3-Asp-Ile-B5-Asp-Glu-Ala-Ala-Cha-Gln-S8-Phe-BztA-Gln-NH2], the Solubility in data set [1] (Solubility (uM)) is 27 µM (≈ 51 µg/mL). The chromatographic logD in data set [2] was 2.52. In addition, in data set [3] (setting [4]), the IC50 was found to be 1130 nM.

`CC[C@H](C)[C@@H]1NC(=O)[C@H](CC(=O)O)NC(=O)[C@]2(CC=CCCCC3(CCCC=CCCCCCC[C@@](C)(C(=O)N[C@@H](Cc4ccccc4)C(=O)N[C@@H](Cc4csc5ccccc45)C(=O)N[C@@H](CCC(N)=O)C(N)=O)NC(=O)[C@H](CCC(N)=O)NC(=O)[C@H](Cc4ccc(-c5ccccc5)cc4)NC(=O)[C@H](C)NC(=O)[C@H](C)NC(=O)[C@H](CCC(=O)O)NC(=O)[C@H](CC(=O)O)NC3=O)NC1=O)CCCN2C(C)=O` (stereo partly drawn) [I-723, Ac-PL3-Asp-Ile-B5-Asp-Glu-Ala-Ala-Bip-Gln-S8-Phe-BztA-Gln-NH2]: in data set [1] (Solubility (uM)), the Solubility worked out at 29 µM (≈ 56.8 µg/mL). The compound further registered a chromatographic logD in data set [2] of 2.58. Further, the IC50 in data set [3] (setting [4]) stood at 3830 nM.

As for `CC[C@H](C)[C@@H]1NC(=O)[C@H](CC(=O)O)NC(=O)[C@]2(CC=CCCCC3(CCCC=CCCCCCC[C@@](C)(C(=O)N[C@@H](Cc4ccccc4)C(=O)N[C@@H](Cc4csc5ccccc45)C(=O)N[C@@H](CCC(N)=O)C(N)=O)NC(=O)[C@H](CCC(N)=O)NC(=O)[C@H](Cc4cccc(OC)c4)NC(=O)[C@H](C)NC(=O)[C@H](C)NC(=O)[C@H](CCC(=O)O)NC(=O)[C@H](CC(=O)O)NC3=O)NC1=O)CCCN2C(C)=O` (stereo partly drawn) [I-724, Ac-PL3-Asp-Ile-B5-Asp-Glu-Ala-Ala-3OMeF-Gln-S8-Phe-BztA-Gln-NH2], the concentration in solution in data set [1] (Solubility (uM)) (Solubility) was 34 µM (≈ 65 µg/mL). In data set [2], this compound came in with a chromatographic logD of 2.42. Further, the IC50 in data set [3] (setting [4]) stood at 114 nM.

Consider `CC[C@H](C)[C@@H]1NC(=O)[C@H](CC(=O)O)NC(=O)[C@]2(CC=CCCCC3(CCCC=CCCCCCC[C@@](C)(C(=O)N[C@@H](Cc4ccccc4)C(=O)N[C@@H](Cc4csc5ccccc45)C(=O)N[C@@H](CCC(N)=O)C(N)=O)NC(=O)[C@H](CCC(N)=O)NC(=O)[C@H](C(c4ccccc4)c4ccccc4)NC(=O)[C@H](C)NC(=O)[C@H](C)NC(=O)[C@H](CCC(=O)O)NC(=O)[C@H](CC(=O)O)NC3=O)NC1=O)CCCN2C(C)=O` (stereo partly drawn) [I-725, Ac-PL3-Asp-Ile-B5-Asp-Glu-Ala-Ala-DipA-Gln-S8-Phe-BztA-Gln-NH2], for which the Solubility in data set [1] (Solubility (uM)) was 42 µM (≈ 82.3 µg/mL). The same compound had a chromatographic logD in data set [2] of 2.61. In addition, the IC50 in data set [3] (setting [4]) stood at 5000 nM.

`CC[C@H](C)[C@@H]1NC(=O)[C@H](CC(=O)O)NC(=O)[C@]2(CC=CCCCC3(CCCC=CCCCCCC[C@@](C)(C(=O)N[C@@H](Cc4ccccc4)C(=O)N[C@@H](Cc4csc5ccccc45)C(=O)N[C@@H](CCC(N)=O)C(N)=O)NC(=O)[C@H](CCC(N)=O)NC(=O)[C@H](c4ccccc4)NC(=O)[C@H](C)NC(=O)[C@H](C)NC(=O)[C@H](CCC(=O)O)NC(=O)[C@H](CC(=O)O)NC3=O)NC1=O)CCCN2C(C)=O` (stereo partly drawn) [I-726, Ac-PL3-Asp-Ile-B5-Asp-Glu-Ala-Ala-Phg-Gln-S8-Phe-BztA-Gln-NH2] had a Solubility in data set [1] (Solubility (uM)) of 43 µM (≈ 80.4 µg/mL). The chromatographic logD in data set [2] worked out at 2.34. Moreover, in data set [3] (setting [4]), the IC50 worked out at 5000 nM.

`CC[C@H](C)[C@@H]1NC(=O)[C@H](CC(=O)O)NC(=O)[C@]2(CC=CCCCC3(CCCC=CCCCCCC[C@@](C)(C(=O)N[C@@H](Cc4ccccc4)C(=O)N[C@@H](Cc4csc5ccccc45)C(=O)N[C@@H](CCC(N)=O)C(N)=O)NC(=O)[C@H](CCC(N)=O)NC(=O)[C@H](CC(C)(C)C)NC(=O)[C@H](C)NC(=O)[C@H](C)NC(=O)[C@H](CCC(=O)O)NC(=O)[C@H](CC(=O)O)NC3=O)NC1=O)CCCN2C(C)=O` (stereo partly drawn) [I-727, Ac-PL3-Asp-Ile-B5-Asp-Glu-Ala-Ala-Npg-Gln-S8-Phe-BztA-Gln-NH2]: in data set [1] (Solubility (uM)), the concentration in solution (Solubility) came to 26 µM (≈ 48.4 µg/mL). This compound registered a chromatographic logD in data set [2] of 2.41. Further, the IC50 in data set [3] (setting [4]) was found to be 5000 nM.

For the compound `CCCC[C@@H]1NC(=O)[C@H](C)NC(=O)[C@H](C)NC(=O)[C@H](CCC(=O)O)NC(=O)[C@H](CC(=O)O)NC(=O)C2(CCCC=CCCCCCC[C@@](C)(C(=O)N[C@@H](Cc3ccccc3)C(=O)N[C@@H](Cc3csc4ccccc34)C(=O)N[C@@H](CCC(N)=O)C(N)=O)NC(=O)[C@H](CCC(N)=O)NC1=O)CCCC=CC[C@]1(CCCN1C(C)=O)C(=O)N[C@@H](CC(=O)O)C(=O)N[C@@H]([C@@H](C)CC)C(=O)N2` (stereo partly drawn) [I-728, Ac-PL3-Asp-Ile-B5-Asp-Glu-Ala-Ala-nLeu-Gln-S8-Phe-BztA-Gln-NH2], the Solubility in data set [1] (Solubility (uM)) came out at 38 µM (≈ 70.3 µg/mL). Further, in data set [2], the chromatographic logD was 2.35. Moreover, the IC50 in data set [3] (setting [4]) worked out at 289 nM.

In the case of `CC[C@H](C)[C@H](NC(=O)[C@H](CCC(N)=O)NC(=O)[C@H](Cc1csc2ccccc12)NC(=O)[C@H](Cc1ccccc1)NC(=O)[C@]1(C)CCCCCCC=CCCCC2(CCCC=CC[C@]3(CCCN3C(C)=O)C(=O)N[C@@H](CC(=O)O)C(=O)N[C@@H](CC(C)C)C(=O)N2)C(=O)N[C@@H](CC(=O)O)C(=O)N[C@@H](CCC(=O)O)C(=O)N[C@@H](C)C(=O)N[C@@H](C)C(=O)N[C@@H](Cc2ccccc2)C(=O)N[C@@H](CC(N)=O)C(=O)N1)C(N)=O` (stereo partly drawn) [I-733, Ac-PL3-Asp-Leu-B5-Asp-Glu-Ala-Ala-Phe-Asn-S8-Phe-BztA-Gln-Ile-NH2], the “Solubility” value in data set [1] amounted to 43 µM (≈ 85.2 µg/mL). In data set [2], the “CHI Log D” value was 2.154. The IC50 in data set [3] (setting [4]) and in data set [3] (read-out: FP EC50) was 4260 nM each time.

In the case of `CC[C@@H](C)[C@@H](NC(=O)[C@H](CCC(N)=O)NC(=O)[C@H](Cc1csc2ccccc12)NC(=O)[C@H](Cc1ccccc1)NC(=O)[C@]1(C)CCCCCCC=CCCCC2(CCCC=CC[C@]3(CCCN3C(C)=O)C(=O)N[C@@H](CC(=O)O)C(=O)N[C@@H](CC(C)C)C(=O)N2)C(=O)N[C@@H](CC(=O)O)C(=O)N[C@@H](CCC(=O)O)C(=O)N[C@@H](C)C(=O)N[C@@H](C)C(=O)N[C@@H](Cc2ccccc2)C(=O)N[C@@H](CC(N)=O)C(=O)N1)C(N)=O` (stereo partly drawn) [I-735, Ac-PL3-Asp-Leu-B5-Asp-Glu-Ala-Ala-Phe-Asn-S8-Phe-BztA-Gln-dIle-NH2], the “Solubility” value in data set [1] worked out at 43 µM (≈ 85.2 µg/mL). The “CHI Log D” value in data set [2] was found to be 2.738. For the same compound, the IC50 in data set [3] (setting [4]) and in data set [3] (read-out: FP EC50) was 246 nM in each case.
